Results on one compound are retold here after patent US12465609B2, “Methods of treating patients suffering from a disease condition or disorder that is associated with an increased glutamate level” (veriNOS operations GmbH, priority 2022, dated 2025).

SMILES strings stand for the structures. A value given as a limit tells only on which side of the number the result lay.

The test system of data set [1] is C57 BL/6 mice, controlled cortical impact (CCI) model. Put plainly: Controlled cortical impact (CCI) model in mice, intracranial pressure (ICP). Format: in vivo. Conditions: CCI mice, analogous treatment. From the text:
The primary objective of this experiment was the characterization of the intracranial pressure (ICP) reduction by VAS3384 in the controlled cortical impact (CCI) model in mice. The secondary objective was characterization of the neuroprotective effect (reduction of the lesion volume) of VAS3384 in the controlled cortical impact model in mice.
• Test compound A • Denomination: VAS 3384 • Active agent: 4-Amino-4-desoxy-7,8-dihydrobiopterin-dihydrochloride, obtained from Schircks Laboratories, Bauma, Switzerland • Detailed composition: VAS 3384 dissolved in sodium phosphate buffer (PBS) pH 7.4 • Formulation method: 15 mg of the test compound (VAS 3384) are dissolved in 500 μl PBS, pH 7.4. The solution is neutralized with 72 μl 1 N NaOH and filled up with 428 μl water (check pH). • Final concentration of active agent: 15 mg/ml • Appearance: yellow, clear solution • Storage (solid test compound): −20° C. • Dose applied: 560 mg/kg or 37.3 ml/kg • Way of administration: intravenous injection/infusion • Negative control • Denomination: sodium phosphate buffer (PBS) • Active agent: none • Detailed composition: Na2HPO4, NaH2PO4, 100 mM pH 7.4 • Formulation method: ready for use • Final concentration of active agent: not applicable • Appearance: colourless, clear solution • Expiration date: 3 months after preparation • Volume applied: 37.3 ml/kg • Way of administration: intravenous injection/infusion Experimental Procedure
The animals (C57 BL/6 mice), under Dormicum/Methidomidin/Fentanyl-narcosis were fixed in a stereo tactical frame and the scalp was opened with a cut along the median. The skull bone
was laid open and disinfected with H2O2. A hole of approx. 1.2 mm diameter was then drilled into the skull (Bregma 0.4-0.4 mm). The ICP-probe was introduced through this hole. The V. jugularis was be laid open and a catheter introduced. This catheter was introduced in the neck subcutaneously and fixed on the cap of the cage with a protective spiral of metal. This setup permitted an infusion in awake animals. The skull was opened above of the right cortex and mechanically traumatized (CCI model). The skullcap was then closed with the removed bone.
Mice 1-9: 10 minutes after the trauma the animals got an intravenous bolus injection of 20 mg/kg VAS 3384 (=1.33 ml/kg) followed by an infusion of 1.5 mg/kg/min (=100 μl/kg/min) VAS 3384 over six hours to maintain the dose. After six hours, after termination of the infusion, and after 24 hours the ICP of the animals was measured. After 24 hours the animals were sacrificed, the brains dissected and the lesion volume determined by Nissl's method.
Mice 10-18: 10 minutes after the trauma the animals received an intravenous bolus injection of 1.33 ml/kg PBS followed by an infusion of 100 μl/kg/min PBS over six hours. After six hours, after the termination of the infusion, and after 24 hours the ICP of the animals was measured.
At the end of the observation period animals were sacrificed by cervical dislocation in deep halothane anaesthesia. The brains were carefully removed, frozen in powdered dry ice, and stored at −20° C. until further use. Ten μm coronal sections were prepared every 500 μm on a cryostat (CryoStar HM 560, Microm, Walldorf, Germany) and stained with cresyl violet. Sections were photographed with a digital camera system. The contusion area, the area of the non-traumatized tissue of the ipsilateral hemisphere, and the area of the contralateral hemisphere were determined on the digitized images with a standard image analysis software (Optimate 6.51, Media Cybernetics, Silver Spring, MD, USA) by an investigator blinded to the treatment of the animals. In order to correct for the swelling of contused tissue, the contusion area was calculated by subtracting the area of the non-traumatized tissue of the ipsilateral hemisphere from the area of the contralateral hemisphere. […]

The test system of data set [2] is extracellular brain glutamate level. Description: Brain microdialysis, extracellular cerebral glutamate levels in TBI patients. The class given is in vivo, human. On the procedure:
(§1) To monitor the metabolic condition of the patients, extracellular brain glutamate and lactate levels were measured. In more detail, the extracellular intracerebral glutamate and lactate levels measured here is the glutamate or lactate level in brain extracellular fluid (ECF). […] The measurements of the glutamate and lactate levels was carried out using established brain microdialysis (MD) methodology as described, for example, by Chamoun et al, example. Role of extracellular glutamate measured by cerebral microdialysis in severe traumatic brain injury. J Neurosurg. 2010 September; 113(3): 564-570.
(§2) The microdialysis (MD) equipment was obtained from M Dialysis AB, Stockholm, Sweden, see www.mdialysis.com. The following equipment was used. • Cerebral MD catheters: CMA 70 • CMA 70 bolt catheter • CMA 71 high cut-off cerebral catheter • Pumps: CMA106=fixed flow rate, CMA107=flexible flow rate • Perfusion solution: Cerebral: Perfusion fluid CNS • Analyzers: CMA 600, ISCUS, ISCUSflex Time Point of MD Catheter Insertion • Aim: Obtain stable baseline values before infusing study drug • Ideal: By 14 hours after TBI or 4 hours before study drug infusion to allow for tissue adaptation, usually lasting 1-4 hours • Compromise: As soon as possible, within 4 hours after beginning study drug infusion Site of Cerebral MD Catheter Insertion • Aim: Monitor metabolic changes close to structural damage visible on routine CT scan • Contusion: Close to the contusion • Mixed lesions: Predominantly injured hemisphere • With bolt system: Right or left frontal lobe • Without bolt system: Right or left frontal/temporal/parietal area • If possible cerebral MD catheter should be placed ipsilateral to the ICP probe • Special care should be taken to avoid inducing injury to pre- and postcentral cortex • The position of the MD probe and the position of the ICP probe in the eCRF should be indicated.
(§3) The cerebral glutamate and lactate levels were recorded every 1 h up to 5 days after the start of the infusion. Absolute values were be summarized per treatment group and for each time point by means of descriptive statistics. The 95% confidence intervals for the mean were calculated (normal approximation).
(§4) For the analysis of the metabolic state, it was considered that under normal (physiological) conditions glutamate is maintained at low levels (micromolar) in the extracellular space (<2 μmol/L) and in plasma (50-100 μmol/L) to avoid excessive glutamate receptor activation. Within the different intracellular compartments glutamate is present in higher amounts (5-15 millimolar). In brain microdialysis, glutamate levels exceeding 10 μmol/L are considered elevated, higher glutamate levels are associated with worse outcome. In addition to the absolute levels, dynamic changes are also important in interpreting underlying pathology. In brain microdialysis and blood, lactate levels exceeding 2.5 millimol/L are considered pathologically elevated, reflecting insufficient metabolic/energetic stability which is further aggravated by insufficient oxygen supply.

Data set [3] has as its system extracellular brain lactate level. Description: Brain microdialysis, extracellular cerebral lactate levels in TBI patients. Format: in vivo, human. On the procedure:
as §1, §2, §3, §4

Turning to `C[C@H](O)[C@H](O)C1CNc2nc(N)nc(N)c2N1` (mixture of isomers) [Ronopterin, 4-Amino-(6R,S)-5,6,7,8-tetrahydro-L-biopterin], the “time ICP remained lowered after the treatment” value in data set [1] is “at least 18 h”. Moreover, the “extracellular cerebral glutamate level” value is less than 10 µmol/L in data set [2] (18 to 39 years, infusion >12 hours after TBI, majority of patients, essentially the same as placebo (FIG. 5E)); less than 10 µmol/L in data set [2] (18 to 39 years, infusion ≤12 h after TBI, all patients (FIG. 5B)); less than 10 µmol/L in data set [2] (40 to 60 years, infusion >12 hours after TBI, majority of the patients (FIG. 6B)); “partially lowered brain glutamate levels” in data set [2] (40 to 60 years, infusion ≤12 h after TBI, no placebo group, not all patients <10 μmol/L (FIG. 6A)); less than 10 µmol/L in data set [2] (patients aged 18 to 39 years, all times to infusion, all patients, up to 108 hours (FIG. 4B)); less than 10 µmol/L in data set [2] (patients aged 40 to 60 years, all times to infusion, majority of patients (FIG. 4E)). Also, in data set [2] (TBI patients, within 12 hours after start of the administration), the “extracellular brain glutamate levels after infusion” value was “less than 10 μmol/L”. Moreover, the “passage of the human blood brain barrier” value in data set [2] (inferred from Example 4) is listed as “passes the human blood brain barrier”. Moreover, the “extracellular cerebral lactate levels” value was “lower brain lactate levels compared to the placebo group” in data set [3] (18 to 39 years, all times to infusion, patients reaching <2.5 millimol/L (FIG. 7A)); “lower brain lactate levels than the placebo group” in data set [3] (18 to 39 years, infusion >12 hours, a number of patients <2.5 millimol/L (FIG. 8C)); “lower brain lactate levels than the placebo group” in data set [3] (18 to 39 years, infusion ≤12 hours, a number of patients <2.5 millimol/L (FIG. 8A)); no less than 2.5 millimol/L in data set [3] (40 to 60 years, all times to infusion, all patients, higher than placebo (FIG. 7C)); no less than 2.5 millimol/L in data set [3] (40 to 60 years, infusion ≤12 hours, all patients, higher than placebo (FIG. 9A)). In addition, in data set [3] (within 120 hours after administration, stayed below threshold or only slightly elevated), the “extracellular brain lactate levels” value is less than 2.5 millimol/L.
